We go through two compounds from publication PMC3520070 (Journal of medicinal chemistry, 2011).

Data set [1] concerns Primary human normal prostate epithelial cells. The experiment in a line: Trypan blue cell death assay, primary prostate epithelial cells. As to conditions: concentrations as high as 10 μM, 48 hours. In kind it is cell-based.
The nature of another data set: Metabolic stability. In kind it is in vitro ADME. As to conditions: IND-enabling studies, data not shown.
In data set [2] the test system is cIAP1, procaspase-8 and PARP in MDA-MB-231 xenograft tissues. As to the kind of experiment: In vivo pharmacodynamics in MDA-MB-231 xenograft tissues. The arrangement: species or system SCID mice.
A short description of the next data set: Tolerability in dogs. In kind it is in vivo. Particulars: IND-enabling studies, data not shown.
Data set [3] is described as follows: Toxicity evaluation in mice. In kind it is in vivo. As to conditions: 200 mg/kg, daily for 5 days a week for 2–3 weeks via oral gavage.
The test system of data set [4] is caspase-3 and PARP in MDA-MB-231 cancer cells. As to the kind of experiment: Western blot of caspase-3 activation and PARP cleavage, MDA-MB-231. The class given is cell-based, human. As to conditions: 1.5 μM, in as little as 12 hr.
A short description of data set [5]: Pharmacokinetics in MDA-MB-231 tumor tissues of SCID mice. As to conditions: for Cmax: SCID, mouse, in vivo. The class given is in vivo.
Data set [6] addresses T1, XIAP BIR3 protein (Homo sapiens, UniProt P98170). The experiment in a line: Cell-free functional assay against XIAP BIR3. The class given is biochemical. Particulars: 1 μM compound, 500 nM XIAP BIR3, MDA-MB-231 cell lysates.
Data set [7] relates to MDA-MB-231 xenograft tumors. As to the kind of experiment: In vivo antitumor efficacy, MDA-MB-231 xenograft model.
Data set [8] has as its target T1, XIAP BIR3 protein. The experiment in a line: Competitive fluorescence-polarization binding assay, XIAP BIR3. Particulars: XIAP BIR3, cIAP1 BIR3 and cIAP2 BIR3.
A short description of data set [9]: Pharmacokinetics in non-human primates. The class given is in vivo, cynomolgus monkeys. Particulars: cynomolgus monkey, plasma, po, 5 mg/kg.
The test system of the next data set is MDA-MB-231 cancer cells. As to the kind of experiment: Trypan blue cell death assay, MDA-MB-231. In kind it is cell-based, human. Particulars: 1 μM for 24 hours.
Data set [10] concerns more than 100 human cancer cell lines. The experiment in a line: Screening against more than 100 human cancer cell lines. In kind it is cell-based.
The test system of data set [11] is normal-like human breast epithelial MCF-12F cells. As to the kind of experiment: Trypan blue cell death assay, MCF-12F. In kind it is cell-based. As to conditions: concentrations as high as 10 μM, 48 hours.
A short description of data set [12]: Pharmacokinetics in plasma of SCID mice bearing MDA-MB-231 tumors. Particulars: mouse, in vivo.
A further data set in a line: Pharmacokinetics in dogs. As to conditions: beagle, dog, po, 10 mg/kg. In kind it is in vivo.
Another data set deals with cIAP1 (Homo sapiens, UniProt Q13490). As to the kind of experiment: cIAP1 degradation in MDA-MB-231 cells. The class given is cell-based.
Where [13] appears, read: 7.5 mg/kg intravenously, 24-h time-point.

Each structure is given as a SMILES string. “Also recorded” adds a separate entry of the source.

cIAP1, sequence (Q13490 whole entry): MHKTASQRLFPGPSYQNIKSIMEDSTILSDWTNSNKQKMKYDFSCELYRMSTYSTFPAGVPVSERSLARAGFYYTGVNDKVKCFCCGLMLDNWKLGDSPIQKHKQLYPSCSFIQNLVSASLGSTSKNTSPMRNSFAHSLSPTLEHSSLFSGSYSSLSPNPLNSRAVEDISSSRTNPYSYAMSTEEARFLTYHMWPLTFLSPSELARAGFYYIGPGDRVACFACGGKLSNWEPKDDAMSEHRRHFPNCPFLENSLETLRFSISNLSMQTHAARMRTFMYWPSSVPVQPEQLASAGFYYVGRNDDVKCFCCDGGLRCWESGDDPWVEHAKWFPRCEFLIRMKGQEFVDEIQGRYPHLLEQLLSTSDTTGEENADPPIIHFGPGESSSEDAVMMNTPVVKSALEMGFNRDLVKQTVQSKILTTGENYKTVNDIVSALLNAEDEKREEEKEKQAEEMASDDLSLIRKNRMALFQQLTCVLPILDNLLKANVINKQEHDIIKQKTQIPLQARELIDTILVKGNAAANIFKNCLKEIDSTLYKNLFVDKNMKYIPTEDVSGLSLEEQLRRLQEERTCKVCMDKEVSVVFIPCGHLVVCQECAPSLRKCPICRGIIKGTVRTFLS
T1 sequence (P98170 241-356): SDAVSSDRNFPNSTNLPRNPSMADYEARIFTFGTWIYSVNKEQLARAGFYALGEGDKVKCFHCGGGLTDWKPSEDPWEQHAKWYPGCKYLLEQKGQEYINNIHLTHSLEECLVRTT

In the case of `CN[C@@H](C)C(=O)N[C@H]1CN(C(=O)CC(C)C)CC[C@H]2CC[C@@H](C(=O)NC(c3ccccc3)c3ccccc3)N2C1=O` [compound 2, (5S,8S,10aR)-N-benzhydryl-5-((S)-2-(methylamino)propanamido)-3-(3-methylbutanoyl)-6-oxodeca-hydropyrrolo[1,2-a][1,5]diazocine-8-carboxamide], the “toxicity (cell death) against normal cells” value in data set [1] is “minimal toxicity”. In the data set “Metabolic stability”, the metabolic stability result is on record as “good metabolic stability”. In addition, in data set [2] (single oral dose 100 mg/kg, 2-hr and 6-hr time-points), the “processing of procaspase-8 in tumor tissues” value is “effectively induces processing of procaspase-8”. In addition, the “PARP cleavage in tumor tissues” value in data set [2] (single oral dose 100 mg/kg, at 2 hr, maximum at 6 hr, still evident after 16 hr) is given as “cleavage of the apoptosis marker, PARP”. In [2] (single oral dose 100 mg/kg, at the 2-hr time-point, persists for 16 hr), the “cIAP1 degradation in tumor tissues” value is listed as “effectively induced cIAP1 degradation”. Also, in “Tolerability in dogs”, the tolerability in dogs entry is reported as “well tolerated”. The tolerability entry in [3] was “well tolerated”. For the same compound, the “activation of caspase-3 and cleavage of PARP” value in [4] was “robust activation of caspase-3 and cleavage of PARP”. For the same compound, in data set [5] (SCID mice bearing MDA-MB-231 tumors), the tumor tissue penetration result is on record as “excellent tumor tissue penetration”. Further, the maximum concentration (Cmax) in [5] (iv, 10 mg/kg) is 6 µM; in data set [5] (po, 10 mg/kg), 0.5 µM; in data set [5] (po, 30 mg/kg) it was 3.9 µM; in data set [5] (po, 100 mg/kg), 18.2 µM; in [9], around 4 µM; in [12] (iv, 10 mg/kg), 5 µM. In addition, the Cmax in [12] (po, 10 mg/kg) stood at 1.5 µM; in data set [12] (po, 30 mg/kg), 2 µM; in [12] (po, 100 mg/kg), 9.9 µM; in “Pharmacokinetics in dogs” (plasma), 17 µM. The “antagonism of XIAP BIR3 and restoration of caspase-9 activity” value at XIAP BIR3 protein [6] was “completely antagonizes XIAP and restores the activity of caspase-9”. For the same compound, the antitumor activity result in data set [7] (10 mg/kg oral gavage daily, 5 days a week for 2 weeks) is “no significant antitumor activity”. Further, the toxicity to animals entry in data set [7] (oral dosing, MDA-MB-231 xenograft model in mice) is on record as “minimal toxicity; also recorded: no signs of toxicity”. For the same compound, the “times higher affinities than the Smac AVPI peptide” value at XIAP BIR3 protein [8] was 50–100 times. In addition, in the data set with MDA-MB-231 cancer cells, the “cells that underwent cell death” value is listed as “More than 50%”. Also, in [10], the “share of cell lines in which cell growth is effectively inhibited” value is given as “approximately 15%”. Further, the “toxicity (cell death) against normal-like cells” value in data set [11] was “minimal toxicity”. This compound also returned an AUC in the data set “Pharmacokinetics in dogs” (in vivo) of 198 µg·h/mL. At cIAP1 (100 nM for 15 min), the cIAP1 degradation result is “complete degradation”. In addition, on cIAP1 (at concentrations as low as 10 nM), the “induction of cIAP1 degradation” value is “effectively induces cIAP1 degradation”.

Regarding `CC(=O)O[C@@]12CO[C@@H]1C[C@H](O)[C@@]1(C)C(=O)[C@H](O)C3=C(C)[C@@H](OC(=O)[C@H](O)[C@@H](NC(=O)OC(C)(C)C)c4ccccc4)C[C@@](O)([C@@H](OC(=O)c4ccccc4)[C@H]21)C3(C)C.O.O.O` [TXT, reference compound], in [2] (setting [13]), the “PARP cleavage in tumor tissues” value was “minimal effect”, the “cIAP1 degradation in tumor tissues” value is recorded as “minimal effect” and the “processing of procaspase-8 in tumor tissues” value is on record as “induces the processing of procaspase-8”. Further, the antitumor activity result in data set [7] (7.5 mg/kg intravenously, once a week for 2 weeks) is listed as “strong antitumor activity”.

Broadly, the Cmax is the highest concentration seen after dosing. As usually defined, the AUC is concentration integrated over time. A lower AUC goes with low exposure.
